Data: patent US8426447B2, “Spiro-tricyclic ring compounds as beta-secretase modulators and methods of use” (Amgen Inc., priority 2008, dated 2013)

Assays:
[1] = biological target: T1, BACE1 (Homo sapiens, UniProt P56817); experiment: In Vitro BACE Cell-based Assay (HEK cell assay): Aβ40 in conditioned medium of cells stably expressing Amyloid Precursor Protein, sandwich ELISA
Summary of the method: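 HEK cells stably expressing APP were treated 24 h with compound in 10-point dose response starting at 100 or 10 μM (0.1% DMSO). Secreted Aβ40 quantified by sandwich ELISA (pAb40 capture, biotinylated 6E10 detection, europium time-resolved fluorescence), with IC50 derived from percent inhibition versus concentration.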

[2] = biological target: T1, BACE1; experiment: In Vitro Enzymatic BACE FRET (Fluorescence Resonance Energy Transfer) Assay; type: biochemical
Summary of the method: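 Buffer: 0.05 M acetate, pH 4.2, 10% DMSO final, 100 uM genapol. Start: FRET substrate 50 nM. Incubation 1 h. Stop: Tris to neutral pH. Read: fluorescence.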

[3] = Table II, Aβ40, 24 h incubation, read-out: HEK cell assay
[4] = Table II, read-out: BACE1 FRET assay
[5] = Table IV, class symbols, read-out: HEK cell assay
[6] = Table IV, class symbols, read-out: BACE1 FRET assay
[7] = Table III, IC50's in uM ranges, read-out: HEK cell assay
[8] = Table III, IC50's in uM ranges, read-out: BACE1 FRET assay
[9] = HEK cell-based assay, Aβ40 in conditioned medium, IC50 class symbols, read-out: HEK cell assay
[10] = in vitro BACE FRET enzyme assay, IC50 class symbols, read-out: BACE1 FRET assay
[11] = HEK cells, read-out: HEK cell assay

T1 sequence (P56817 46-501, species assumed): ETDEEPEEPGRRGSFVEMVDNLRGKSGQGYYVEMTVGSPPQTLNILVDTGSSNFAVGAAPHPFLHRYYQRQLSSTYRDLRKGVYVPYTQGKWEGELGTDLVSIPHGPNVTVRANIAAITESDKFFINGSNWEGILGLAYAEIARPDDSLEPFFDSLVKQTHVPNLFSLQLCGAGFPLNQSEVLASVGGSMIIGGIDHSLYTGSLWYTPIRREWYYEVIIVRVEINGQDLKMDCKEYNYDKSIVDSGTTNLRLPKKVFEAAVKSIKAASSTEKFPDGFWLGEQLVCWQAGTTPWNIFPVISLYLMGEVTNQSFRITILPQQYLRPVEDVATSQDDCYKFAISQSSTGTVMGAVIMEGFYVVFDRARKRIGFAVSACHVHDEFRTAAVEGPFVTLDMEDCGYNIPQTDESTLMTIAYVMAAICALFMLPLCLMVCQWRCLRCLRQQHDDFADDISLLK

CC(C)(C)COc1ccc2c(c1)[C@]1(COC(N)=N1)c1cc(-c3ccc4[nH]ccc4c3)ccc1O2 [Example 73, (4S)-2′-(2,2-dimethylpropoxy)-7′-(1H-indol-5-yl)spiro[1,3-oxazole-4,9′-xanthen]-2-amine]
IC50 [1, 3]: 1 to 5 µM
IC50 [2, 4]: 0.1 to 1 µM

NC1=N[C@@]2(CO1)c1cc(-c3cccnc3)ccc1Oc1c(F)cccc12 [compound 592]
IC50 [1, 5]: 0.1 to 1 µM
IC50 [2, 6]: < 0.1 µM

CC1(C)CN(c2cc3c(cn2)Oc2ccc(-c4cccnc4F)cc2[C@@]32COC(N)=N2)CCO1 [compound 489]
IC50 ([1]; HEK cell assay (uM), HEK cells): < 0.1 µM
IC50 ([2]; BACE1 FRET assay (uM)): < 0.1 µM

COc1ccc2c(c1)[C@]1(COC(N)=N1)c1cc(C#CC(C)(C)C)cnc1O2 [compound 904]
IC50 [1, 5]: 0.1 to 1 µM
IC50 [2, 6]: > 5 µM

CC(C)(O)COc1ccc2c(c1)[C@]1(COC(N)=N1)c1cc(-c3cccnc3)ccc1O2 [Example 135, (S)-1-(2-amino-2′-(pyridin-3-yl)-5H-spiro[oxazole-4,9′-xanthene]-7′-yloxy)-2-methylpropan-2-ol]
IC50 [1, 7]: < 0.1 µM
IC50 [2, 8]: < 0.1 µM

CC1(C)CC(c2ccc3c(c2)[C@]2(COC(N)=N2)c2cc(-c4cncnc4)ccc2O3)=CCO1 [compound 688]
IC50 ([1]; read-out: HEK cell assay): < 0.1 µM
IC50 ([2]; read-out: BACE1 FRET assay): < 0.1 µM

NC1=N[C@@]2(CO1)c1cc(-c3cccnc3F)ccc1Oc1ccc(C3=CCOCC3)nc12 [compound 400]
IC50 [1, 9]: < 0.1 µM
IC50 [2, 10]: < 0.1 µM

CC(C)(C)CCc1ccc2c(c1)[C@@]1(COC(N)=N1)c1cc(-c3cccnc3)cnc1O2 [compound 161]
IC50 [1, 7]: < 0.1 µM
IC50 [2, 8]: < 0.1 µM

CC(C)(O)COc1ccc2c(c1)[C@]1(COC(N)=N1)c1cc(-c3cccnc3F)ccc1O2 [compound 906]
IC50 [1, 5]: < 0.1 µM
IC50 [2, 6]: < 0.1 µM

NC1=N[C@@]2(CO1)c1cc(-c3cccnc3)ccc1Oc1cnc([C@@H]3CCCCO3)cc12 [compound 696]
IC50 ([1]; read-out: HEK cell assay): < 0.1 µM
IC50 ([2]; read-out: BACE1 FRET assay): < 0.1 µM

CC(C)(O)COc1ccc2c(c1C#N)[C@]1(COC(N)=N1)c1cc(-c3cccnc3)ccc1O2 [compound 929]
IC50 ([1]; read-out: HEK cell assay): 0.1 to 1 µM
IC50 ([2]; read-out: BACE1 FRET assay): < 0.1 µM

NC1=N[C@@]2(CO1)c1cc(-c3cccnc3)ccc1Oc1c(F)cc(OCC3CCOCC3)cc12 [compound 418]
IC50 [1, 9]: < 0.1 µM
IC50 [2, 10]: < 0.1 µM

CC(C)(C)CC(=O)c1ccc2c(c1)[C@@]1(CSC(N)=N1)c1cc(-c3cncnc3)ccc1O2 [compound 762]
IC50 ([1]; read-out: HEK cell assay): 1 to 5 µM
IC50 ([2]; read-out: BACE1 FRET assay): 0.1 to 1 µM

CC1(C)CN(c2cc(F)c3c(c2)[C@@]2(COC(N)=N2)c2cc(-c4cncnc4)ccc2O3)CCO1 [compound 506]
IC50 [1, 11]: 1 to 5 µM
IC50 ([2]; read-out: BACE1 FRET assay): 0.1 to 1 µM

NC1=N[C@@]2(CO1)c1cc(-c3cccnc3F)ccc1Oc1cnc(Cl)cc12 [compound 551]
IC50 [1, 5]: 0.1 to 1 µM
IC50 [2, 6]: 0.1 to 1 µM

COC(C)(C)C#Cc1ccc2c(c1)[C@@]1(COC(N)=N1)c1cc(OCC(C)(C)O)ccc1O2 [compound 768]
IC50 ([1]; read-out: HEK cell assay): 0.1 to 1 µM
IC50 ([2]; read-out: BACE1 FRET assay): 0.1 to 1 µM

CC(C)(C)CCc1ccc2c(c1)[C@]1(COC(N)=N1)c1cc(Oc3ccccn3)ccc1O2 [compound 205]
IC50 [1, 7]: 0.1 to 1 µM
IC50 [2, 8]: < 0.1 µM

NC1=N[C@@]2(CO1)c1cc(-c3cc(Cl)ccc3F)ccc1Oc1cnc(-c3ccncc3)cc12 [compound 330]
IC50 [1, 9]: < 0.1 µM
IC50 [2, 10]: < 0.1 µM

CC(C)OCCOc1ccc2c(c1)[C@]1(COC(N)=N1)c1cc(-c3cncnc3)ccc1O2 [compound 180]
IC50 [1, 7]: 0.1 to 1 µM
IC50 [2, 8]: < 0.1 µM

NC1=N[C@@]2(CO1)c1cc(-c3cccnc3)ccc1Oc1cnc(N3CCCCC3)cc12 [compound 445]
IC50 [1, 11]: < 0.1 µM
IC50 ([2]; read-out: BACE1 FRET assay): < 0.1 µM

CC(C)(C)CCc1cnc2c(c1)[C@]1(COC(N)=N1)c1cc(-c3cncnc3)ccc1O2 [compound 472]
IC50 [1, 11]: < 0.1 µM
IC50 ([2]; read-out: BACE1 FRET assay): < 0.1 µM

NC1=N[C@]2(CO1)c1cc(-c3cccc(F)c3)ccc1Oc1ncc(C3=CCOCC3)cc12 [compound 690]
IC50 ([1]; read-out: HEK cell assay): > 5 µM
IC50 ([2]; read-out: BACE1 FRET assay): 1 to 5 µM

CNCc1ccc(-c2ccc3c(c2)[C@]2(COC(N)=N2)c2cc(OCC(C)(C)C)ccc2O3)cc1 [compound 784]
IC50 ([1]; read-out: HEK cell assay): 1 to 5 µM
IC50 ([2]; read-out: BACE1 FRET assay): 0.1 to 1 µM

NC1=N[C@]2(CO1)c1cc(Br)ccc1Oc1ncccc12 [compound 600]
IC50 [1, 5]: > 5 µM
IC50 [2, 6]: > 5 µM

CC(C)(C)C#Cc1ccc2c(c1)[C@@]1(COC(N)=N1)c1cc(-c3ccc(F)nc3)ccc1O2 [147b]
IC50 [1, 7]: 0.1 to 1 µM
IC50 [2, 8]: < 0.1 µM

CC1(C)CN(c2cc(F)c3c(c2)[C@]2(COC(N)=N2)c2cc(-c4cccnc4)ccc2O3)CCO1 [compound 484]
IC50 [1, 11]: < 0.1 µM
IC50 ([2]; read-out: BACE1 FRET assay): < 0.1 µM

CC(C)(C)COc1ccc2c(c1)[C@]1(COC(N)=N1)c1cc(-c3ccc(Br)nn3)ccc1O2 [compound 970]
IC50 ([1]; read-out: HEK cell assay): > 5 µM
IC50 ([2]; read-out: BACE1 FRET assay): 0.1 to 1 µM

NC1=N[C@]2(CO1)c1cc(-c3ccccc3)ccc1Oc1ncccc12 [compound 598]
IC50 [1, 5]: > 5 µM
IC50 [2, 6]: 1 to 5 µM

CC(C)(C)C#Cc1cnc2c(c1)[C@]1(COC(N)=N1)c1cc(-c3ccc(F)nc3)ccc1O2 [compound 766]
IC50 ([1]; read-out: HEK cell assay): < 0.1 µM
IC50 ([2]; read-out: BACE1 FRET assay): < 0.1 µM

NC1=N[C@@]2(CO1)c1cc(Br)ccc1Oc1ccc(/C=C/C(=O)O)cc12 [compound 919]
IC50 [1, 5]: > 5 µM
IC50 [2, 6]: 1 to 5 µM

CC(C)(C)CCOc1nccc2c1[C@]1(COC(N)=N1)c1cc(-c3cncnc3)ccc1O2 [compound 984]
IC50 ([1]; read-out: HEK cell assay): 0.1 to 1 µM
IC50 ([2]; read-out: BACE1 FRET assay): 0.1 to 1 µM

NC1=N[C@]2(CO1)c1ccccc1Oc1ncc(-c3cncnc3)cc12 [compound 661]
IC50 [1, 5]: 0.1 to 1 µM
IC50 [2, 6]: 0.1 to 1 µM

NC1=N[C@@]2(CO1)c1ccccc1Oc1ccc(C(=O)N3CCCCC3)cc12 [compound 639]
IC50 [1, 5]: > 5 µM
IC50 [2, 6]: > 5 µM

CC(C)(C)COc1ccc2c(c1)[C@]1(COC(N)=N1)c1cc(-c3cnccc3Cl)ccc1O2 [compound 883]
IC50 [1, 5]: 0.1 to 1 µM
IC50 [2, 6]: < 0.1 µM

CC(C)(C)COc1cnc2c(c1)[C@]1(COC(N)=N1)c1cc(-c3cccc(C#N)c3)ccc1O2 [compound 358]
IC50 [1, 9]: < 0.1 µM
IC50 [2, 10]: < 0.1 µM

NC1=N[C@]2(CO1)c1cc(-c3cccnc3)ccc1Oc1cnc(-c3cccnc3)cc12 [compound 954]
IC50 ([1]; read-out: HEK cell assay): 0.1 to 1 µM
IC50 ([2]; read-out: BACE1 FRET assay): < 0.1 µM

NC1=N[C@@]2(CO1)c1cc(-c3cccnc3)ccc1Oc1cnc(N3CCCC3)cc12 [compound 493]
IC50 [1, 11]: < 0.1 µM
IC50 ([2]; read-out: BACE1 FRET assay): < 0.1 µM

C[C@H]1OC(N)=N[C@]12c1cc(OCC(C)(C)C)ccc1Oc1ccc(-c3cncnc3)cc12 [126c]
IC50 [1, 7]: 1 to 5 µM
IC50 [2, 8]: 0.1 to 1 µM

CC(C)(C)COc1ccc2c(c1)[C@]1(COC(N)=N1)c1cc(-c3cccc4ncccc34)ccc1O2 [compound 916]
IC50 [1, 5]: 1 to 5 µM
IC50 [2, 6]: 0.1 to 1 µM

Cn1cc(-c2ccc3c(c2)[C@]2(COC(N)=N2)c2cc(-c4cccnc4)ccc2O3)ccc1=O [compound 611]
IC50 [1, 5]: 0.1 to 1 µM
IC50 [2, 6]: < 0.1 µM

CC(C)(F)COc1ccc2c(c1)[C@]1(COC=N1)c1cc(Br)c(N)nc1O2 [compound 171]
IC50 [1, 7]: 1 to 5 µM
IC50 [2, 8]: 0.1 to 1 µM

COc1ccc(-c2ccc3c(c2)[C@@]2(COC(N)=N2)c2cc(OCC(C)(C)C)ccc2O3)cn1 [Example 87, (4S)-2′-(2,2-dimethylpropoxy)-7′-(6-methoxy-3-pyridinyl)spiro[1,3-oxazole-4,9′-xanthen]-2-amine]
IC50 [1, 3]: 1 to 5 µM
IC50 [2, 4]: 0.1 to 1 µM

CC(C)(C)C#Cc1ccc2c(c1)[C@@]1(COC(N)=N1)c1cc(-c3cccnc3)cnc1O2 [compound 895]
IC50 [1, 5]: < 0.1 µM
IC50 [2, 6]: < 0.1 µM

CC(C)(C)C#Cc1ccc2c(c1)[C@@]1(COC(N)=N1)c1cc(-c3cccnc3)cnc1O2 [compound 160]
IC50 [1, 7]: < 0.1 µM
IC50 [2, 8]: < 0.1 µM

CC(C)(C)COc1ccc2c(c1)[C@]1(COC(N)=N1)c1cc(-c3ccc(=O)[nH]c3)ccc1O2 [compound 980]
IC50 ([1]; read-out: HEK cell assay): 1 to 5 µM
IC50 ([2]; read-out: BACE1 FRET assay): 0.1 to 1 µM

CC(C)(C)COc1ccc2c(c1)[C@]1(COC(N)=N1)c1cc(N3CCOCC3)ccc1O2 [Example 43, (4S)-2′-(2,2-dimethylpropoxy)-7′-(4-morpholinyl)spiro[1,3-oxazole-4,9′-xanthen]-2-amine]
IC50 [1, 3]: 0.1 to 1 µM
IC50 [2, 4]: 0.1 to 1 µM

NC1=N[C@@]2(CO1)c1cc(-c3cccnc3)ccc1Oc1cnc(C3=CCOCC3)cc12 [compound 849]
IC50 [1, 5]: < 0.1 µM
IC50 [2, 6]: < 0.1 µM
